# Data as given in the SangsterLogP compilation.
# Experiments:
# [1] = method code SF-GLC, from DOI: 10.1897/1552-8618(1989)8[499:dowpcf]2.0.co;2
# [2] = method code SF-AS, from DOI: 10.1023/a:1021720128725
# [3] = not given; remark: listed apart in the source
# [4] = method code SF, from ISBN: 9780948404450
# [5] = method code SF-HPLC, from DOI: 10.1021/js980008v, PMID: 9758683
# [6] = not given; remark: listed apart in the source
# [7] = not given; remark: listed apart in the source
# [8] = method code SF-HPLC, from DOI: 10.13422/j.cnki.syfjx.2013.03.051
# [9] = method code SF-AS, from DOI: 10.2307/3574491, PMID: 940937; conditions: pH 7.4
# [10] = not given; remark: listed apart in the source
# [11] = method code SF, from ISBN: 9780444415486
# [12] = not given; remark: listed apart in the source
# [13] = pH 6.0
# [14] = method code SF, from ISBN: 9780815518525; conditions: pH 7.0
# [15] = not given; remark: listed apart in the source
# [16] = not given; remark: listed apart in the source
# [17] = not given; remark: listed apart in the source
smiles,measurement,setting,value
Clc1cc(Cl)c(Cl)cc1Cl,logP,[1],4.6
OCCN(CCO)CCO,logP,,-1.32
Nc1nc2c(ncn2COCCO)c(=O)[nH]1,logP,[2],-1.44
O=C(O)c1ccccc1C(=O)Nc1cccc2ccccc12,logP,[3],3
CCS(=O)c1sc(C#N)c(Cl)c1C#N (stereo not given),logP,[4],2.54
O=C1NC(=O)C(c2ccccc2)(c2ccccc2)N1,logP,[5],2.21
Cc1ccccc1/C=C/[N+](=O)[O-],logP,[6],2.63
CSc1nc(NC(C)C)nc(NC(C)C)n1,logP,[7],3.36
Cc1cn2c(=O)c3c(nc2[nH]1)N(COCCO)C(Br)N3 (stereo not given),logP,[2],-0.11
CCCC(=O)OCN1C(=O)NC(c2ccccc2)(c2ccccc2)C1=O,logP,[5],3.9
CC(=O)OCN1C(=O)NC(c2ccccc2)(c2ccccc2)C1=O,logP,[5],2.8
O=C1C=CC[C@@H]2[C@H]3CCC[N+]4([O-])CCC[C@@H](CN12)[C@@H]34 (stereo not given in full),logP,[8],-0.44
COC(=O)CCn1c(C)cnc1[N+](=O)[O-],logD,[9],-0.25
OCCOCCOCCOCCO,logP,,-1.38
O=[N+]([O-])c1nccn1CC(O)CO (stereo not given),logD,[9],-0.96
Oc1ccccc1,logP,[10],1.6
N#Cc1cc(Br)c(O)c(Br)c1,logP,[3],2.7
CN1C(=O)OC(c2ccccc2)C1=O (stereo not given),logP,[11],1.06
CCS(=O)CCSP(=O)(OC)OC (stereo not given),logP,[12],-0.74
CC(=O)[C@H]1CC[C@H]2[C@@H]3CCC4=CC(=O)CC[C@]4(C)[C@H]3CC[C@]12C,logD,[13],3.7
CNC(=O)N(C)c1nnc(C(C)(C)C)s1,logD,[14],1.79
CCc1ccc2c(c1)C(=O)c1ccccc1C2=O,logP,[1],4.37
CC(=O)Nc1cc(C(C)(C)C)c(O)cc1C,logP,[15],2.18
O=C1NC(c2ccccc2)(c2ccccc2)C(=O)N1CO,logP,[5],2.23
c1ccc(Oc2cccc(-c3ccccc3)c2)cc1,logP,,5.55
Cc1ccccc1C(=N)c1ccccc1C,logP,[15],3.31
O=C(O)c1c(O)cccc1O,logP,[16],1.23
CCCCNCCCC,logP,,2.68
Nc1ccccc1,logP,[17],1.08
CC(C)(C)c1cn2c(=O)c3ncn(COCCO)c3nc2[nH]1,logP,[2],0.62
